# Assay results reported in paper PMC12749252 (Nature Communications, 2025).
# Tests used:
# GCN2 = GCN2 (Homo sapiens, UniProt Q9P2K8); assay: Eurofins KinaseProfiler in vitro; assay type: biochemical
# WEE1 = WEE1 (Homo sapiens, UniProt P30291); assay: NanoBRET target engagement in HEK293 cells; assay type: cell-based
# WEE1, sequence (P30291 whole entry): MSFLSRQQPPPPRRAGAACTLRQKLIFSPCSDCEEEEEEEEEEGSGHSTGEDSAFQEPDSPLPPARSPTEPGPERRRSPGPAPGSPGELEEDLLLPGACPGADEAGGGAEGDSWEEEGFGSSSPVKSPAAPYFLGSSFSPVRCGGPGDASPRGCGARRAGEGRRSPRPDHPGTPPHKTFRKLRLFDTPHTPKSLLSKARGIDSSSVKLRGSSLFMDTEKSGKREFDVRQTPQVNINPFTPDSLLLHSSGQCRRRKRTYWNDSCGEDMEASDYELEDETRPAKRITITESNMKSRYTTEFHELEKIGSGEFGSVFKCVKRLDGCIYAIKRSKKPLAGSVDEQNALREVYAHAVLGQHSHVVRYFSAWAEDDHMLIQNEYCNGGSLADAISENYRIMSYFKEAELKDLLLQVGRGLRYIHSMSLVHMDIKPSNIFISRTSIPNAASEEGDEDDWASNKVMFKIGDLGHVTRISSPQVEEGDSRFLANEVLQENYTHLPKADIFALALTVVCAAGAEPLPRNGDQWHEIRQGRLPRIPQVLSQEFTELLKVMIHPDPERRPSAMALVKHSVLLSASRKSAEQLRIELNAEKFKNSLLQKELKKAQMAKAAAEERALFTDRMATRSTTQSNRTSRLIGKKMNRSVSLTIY
# GCN2, sequence (Q9P2K8 whole entry): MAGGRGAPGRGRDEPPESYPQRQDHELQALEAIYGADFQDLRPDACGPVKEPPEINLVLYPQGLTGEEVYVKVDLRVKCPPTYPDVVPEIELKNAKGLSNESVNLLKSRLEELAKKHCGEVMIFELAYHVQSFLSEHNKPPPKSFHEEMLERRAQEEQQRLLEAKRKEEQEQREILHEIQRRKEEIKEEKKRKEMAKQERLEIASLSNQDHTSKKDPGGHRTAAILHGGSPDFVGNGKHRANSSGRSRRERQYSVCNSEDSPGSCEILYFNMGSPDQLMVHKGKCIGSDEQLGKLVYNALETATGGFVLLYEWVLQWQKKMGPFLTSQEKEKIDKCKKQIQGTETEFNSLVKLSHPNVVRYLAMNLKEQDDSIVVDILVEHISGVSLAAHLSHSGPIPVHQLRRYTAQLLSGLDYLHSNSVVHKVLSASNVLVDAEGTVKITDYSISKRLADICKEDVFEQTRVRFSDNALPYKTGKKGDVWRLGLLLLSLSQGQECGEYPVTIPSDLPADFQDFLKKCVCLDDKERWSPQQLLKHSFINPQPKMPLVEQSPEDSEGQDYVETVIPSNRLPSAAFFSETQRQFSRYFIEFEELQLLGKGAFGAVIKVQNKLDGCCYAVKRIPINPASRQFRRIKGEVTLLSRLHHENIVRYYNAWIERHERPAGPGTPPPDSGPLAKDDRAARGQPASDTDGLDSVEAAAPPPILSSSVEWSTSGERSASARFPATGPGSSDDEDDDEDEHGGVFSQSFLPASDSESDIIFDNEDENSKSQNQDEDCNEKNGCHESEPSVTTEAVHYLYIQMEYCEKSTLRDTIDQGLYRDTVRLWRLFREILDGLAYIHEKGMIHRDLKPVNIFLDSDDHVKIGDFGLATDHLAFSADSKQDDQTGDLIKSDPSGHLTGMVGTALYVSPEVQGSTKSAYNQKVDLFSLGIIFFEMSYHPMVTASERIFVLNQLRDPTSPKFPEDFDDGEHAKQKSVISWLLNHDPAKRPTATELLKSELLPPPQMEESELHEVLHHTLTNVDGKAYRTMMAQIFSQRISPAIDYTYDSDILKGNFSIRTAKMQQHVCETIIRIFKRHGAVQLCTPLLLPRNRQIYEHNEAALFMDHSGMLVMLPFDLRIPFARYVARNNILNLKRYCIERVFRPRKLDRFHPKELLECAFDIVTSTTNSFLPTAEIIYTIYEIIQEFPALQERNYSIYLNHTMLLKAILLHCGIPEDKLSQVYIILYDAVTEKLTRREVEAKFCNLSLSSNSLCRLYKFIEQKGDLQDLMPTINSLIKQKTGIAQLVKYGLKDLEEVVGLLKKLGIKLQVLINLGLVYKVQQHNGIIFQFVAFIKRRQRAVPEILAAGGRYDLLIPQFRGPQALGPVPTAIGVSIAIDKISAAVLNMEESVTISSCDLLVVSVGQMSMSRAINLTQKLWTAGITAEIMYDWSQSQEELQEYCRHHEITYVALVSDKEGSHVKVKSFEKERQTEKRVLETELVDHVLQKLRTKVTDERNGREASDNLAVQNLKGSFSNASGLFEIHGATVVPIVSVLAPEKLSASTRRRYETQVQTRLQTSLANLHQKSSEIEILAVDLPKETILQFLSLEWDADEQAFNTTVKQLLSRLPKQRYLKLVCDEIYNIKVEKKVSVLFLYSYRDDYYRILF
Structure (SMILES),IC50 (GCN2) [nM],NanoBRET target engagement in HEK293 cells (only at high doses) (WEE1)
C=CCn1c(=O)c2cnc(Nc3ccc(N4CCN(C)CC4)cc3)nc2n1-c1cccc(C(C)(C)O)n1 [AZD1775],140,
Cc1cc2c(C(N)=O)c(N)n(-c3c(C)ccc(O)c3C)c2nc1C [RP-6306],,while PKMYT1i only interacted at high doses (Fig. 5c)
